pIC50: −log10 of the molar value.
Assays:
[1] = tested on: A2780; experiment: A2780 viability assay (CellTiter-Glo, 72 hours); format: cell-based; conditions: Homo sapiens; A2780 cells
How it was run: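 RPMI-1640/10% FBS; plate cells (MV4-11 1×10^4, OVCAR-3 5×10^3, A2780 1×10^3 per well); 24 h later add compound 0.0015–10 uM; 72 h, 37° C; CellTiter-Glo luminescence, duplicate wells.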

[2] = tested on: OVCAR-3; experiment: OVCAR-3 viability assay (CellTiter-Glo, 72 hours); format: cell-based; conditions: Homo sapiens; OVCAR-3 cells
Description: Human […] cell line, MV4-11_(ATCC, Cat #CRL-9591), NSCLC (Non-small cell lung cancer) cell line H460 (ATCC, Cat #HTB-177), A2780 (ECACC, Cat #93112519) and OVCAR-3(ATCC, Cat #HTB-161) were obtained from ATCC. Cells were grown in RPMI-1640 media (Invitrogen, Cat #22400-089) supplemented with 10% FBS (Invitrogen, Cat #10099141) and 1% penicillin/streptomycin (Invitrogen, Cat #15070063) and cultured at 37° C., 5% CO2 in a humidified chamber. All cell lines were routinely tested for mycoplasma.
To effect of the CDK7 inhibitor to inhibit the growth of target cancer cells, viability assay were conducted a 72 hour time period. Briefly, the candidate cell line was plated in 96 well plate at the following density of cells respectively. 1×10^4 cells/well for MV4-11, 5×10^3 for H460 and OVCAR-3, and 1×10^3 for A2780. After 24 hours, the cells were treated with various concentrations of the compound (ranging from 0.0015 uM to 10 uM). DMSO solvent without compound served as a control and final DMSO concentration lest than 0.1%. After 72 hours of incubation at 37° C., 5% CO2 incubator, cells were analyzed for the viability using the CellTiter-Glo Luminescent Cell Viability Assay (Promega, Cat #G7570). All viability assays were performed in duplicate and Luminescence was read using an Envision (Perkin Elmer, USA). Data was analyzed using XLfit software.

[3] = target: T1, CDK5/p25 (Homo sapiens, UniProt Q00535); experiment: Enzymatic assay for CDK5 (LANCE Ultra kinase assay, FRET based); format: biochemical; conditions: ATP at Km
T1 construct: purchased Invitrogen PR8543B
How it was run: (§1)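 Inhibition was measured at ATP Km with 68 nM ULight-MBP peptide and CDK2/Cyclin A ([…]) or CDK5/p25 ([…]), using 8-dose 4-fold compound dilutions from DMSO. Kinase reaction ran 60 min at 23° C, then Eu anti-phospho-MBP plus EDTA were added for another 60 min before the fluorescence read.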

[4] = target: T2, CDK2/Cyclin A (Homo sapiens, UniProt P24941); experiment: Enzymatic assay for CDK2 (LANCE Ultra kinase assay, FRET based); format: biochemical; conditions: ATP at Km
T2 construct: purchased Invitrogen PV6290
How it was run: as §1

[5] = target: T3, CDK1/Cyclin B (Homo sapiens, UniProt P06493); experiment: Enzymatic assay for CDK1 (LANCE Ultra kinase assay, FRET based); format: biochemical; conditions: ATP at Km; read-out: CDK1 enzymatic activity IC50
T3 construct: purchased Invitrogen PR4768C
How it was run: (§2)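 Purified CDK–cyclin enzyme, ATP at Km; ULight peptide substrate; TR-FRET via Eu anti-phospho-Ab; inhibition scored.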

[6] = target: T4, CDK7/Cyclin H/MNAT1 (Homo sapiens, UniProt P50613); experiment: Enzymatic assay for CDK7 (LANCE Ultra kinase assay, FRET based); format: biochemical; conditions: for pIC50: ATP at Km
T4 construct: purchased Invitrogen PR6749B
How it was run: as §2

T3 sequence (P06493 whole entry): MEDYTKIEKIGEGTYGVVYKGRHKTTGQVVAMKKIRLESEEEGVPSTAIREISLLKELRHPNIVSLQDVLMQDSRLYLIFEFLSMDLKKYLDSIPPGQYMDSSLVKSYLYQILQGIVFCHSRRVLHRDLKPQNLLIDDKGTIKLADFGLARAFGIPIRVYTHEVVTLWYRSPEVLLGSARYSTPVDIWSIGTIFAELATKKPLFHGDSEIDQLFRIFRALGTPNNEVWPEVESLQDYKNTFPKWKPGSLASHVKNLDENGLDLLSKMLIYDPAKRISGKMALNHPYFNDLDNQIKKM
T3 sequence (P14635 whole entry partner): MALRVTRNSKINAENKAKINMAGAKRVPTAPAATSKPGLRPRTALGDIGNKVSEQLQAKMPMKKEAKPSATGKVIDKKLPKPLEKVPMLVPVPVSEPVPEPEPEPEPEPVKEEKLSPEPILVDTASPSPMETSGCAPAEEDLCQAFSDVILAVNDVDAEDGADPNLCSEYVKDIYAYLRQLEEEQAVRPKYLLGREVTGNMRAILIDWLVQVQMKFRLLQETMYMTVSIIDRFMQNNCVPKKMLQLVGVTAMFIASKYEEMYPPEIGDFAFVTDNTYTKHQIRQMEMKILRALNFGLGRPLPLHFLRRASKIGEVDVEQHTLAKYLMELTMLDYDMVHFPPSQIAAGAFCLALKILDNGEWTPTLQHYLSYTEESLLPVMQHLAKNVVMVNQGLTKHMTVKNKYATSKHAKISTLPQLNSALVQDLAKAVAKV
T1 sequence (Q00535 whole entry): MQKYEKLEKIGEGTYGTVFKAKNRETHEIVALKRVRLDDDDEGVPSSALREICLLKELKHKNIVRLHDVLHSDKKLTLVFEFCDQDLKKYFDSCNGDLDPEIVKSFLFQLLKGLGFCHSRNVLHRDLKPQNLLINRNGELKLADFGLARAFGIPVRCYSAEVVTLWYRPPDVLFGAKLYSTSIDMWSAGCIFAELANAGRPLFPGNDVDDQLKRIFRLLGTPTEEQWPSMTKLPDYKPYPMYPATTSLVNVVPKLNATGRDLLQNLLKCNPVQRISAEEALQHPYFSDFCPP
T1 sequence (Q15078 99-307 partner limits assumed): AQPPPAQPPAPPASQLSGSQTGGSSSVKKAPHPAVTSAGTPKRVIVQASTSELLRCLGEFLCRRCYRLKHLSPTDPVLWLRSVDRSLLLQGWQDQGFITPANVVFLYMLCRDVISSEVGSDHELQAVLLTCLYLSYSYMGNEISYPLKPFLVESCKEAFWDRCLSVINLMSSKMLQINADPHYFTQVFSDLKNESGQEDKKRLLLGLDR
T4 sequence (P50613 whole entry): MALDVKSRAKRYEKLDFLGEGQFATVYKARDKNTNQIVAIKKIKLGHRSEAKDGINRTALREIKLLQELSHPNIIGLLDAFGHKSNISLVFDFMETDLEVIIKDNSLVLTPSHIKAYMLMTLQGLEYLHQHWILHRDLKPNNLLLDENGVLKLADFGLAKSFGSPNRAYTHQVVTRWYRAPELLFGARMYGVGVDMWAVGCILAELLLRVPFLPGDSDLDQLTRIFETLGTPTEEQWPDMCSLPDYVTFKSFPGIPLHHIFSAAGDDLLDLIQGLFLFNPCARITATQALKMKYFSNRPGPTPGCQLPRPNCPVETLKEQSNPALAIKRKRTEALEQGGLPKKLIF
T4 sequence (P51946 whole entry partner): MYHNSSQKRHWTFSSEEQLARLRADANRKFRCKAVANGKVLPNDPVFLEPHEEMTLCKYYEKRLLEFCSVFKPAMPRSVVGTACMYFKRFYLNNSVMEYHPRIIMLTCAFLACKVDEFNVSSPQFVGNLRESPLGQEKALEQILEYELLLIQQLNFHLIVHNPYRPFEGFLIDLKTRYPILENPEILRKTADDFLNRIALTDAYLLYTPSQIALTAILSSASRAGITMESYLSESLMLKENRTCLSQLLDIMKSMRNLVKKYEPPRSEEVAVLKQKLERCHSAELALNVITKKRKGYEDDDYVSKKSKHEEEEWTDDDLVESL
T4 sequence (P51948 whole entry partner): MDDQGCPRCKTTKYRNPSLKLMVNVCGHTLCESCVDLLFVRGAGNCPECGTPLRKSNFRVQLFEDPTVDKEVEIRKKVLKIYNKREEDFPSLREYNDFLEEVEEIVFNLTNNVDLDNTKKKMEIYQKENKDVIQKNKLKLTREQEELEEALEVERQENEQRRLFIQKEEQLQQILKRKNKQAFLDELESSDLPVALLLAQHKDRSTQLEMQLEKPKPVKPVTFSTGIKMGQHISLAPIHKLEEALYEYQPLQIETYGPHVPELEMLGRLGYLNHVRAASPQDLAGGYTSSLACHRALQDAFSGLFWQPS

SMILES: CC(C)c1cnn2c(NCc3ccccc3-c3nccc4cc(NC(=O)/C=C/CN(C)C)ccc34)nc(N3CCC4(CCN(C)CC4)CC3)nc12 [Compound 128]
- pIC50 [1]: > 6.00
- pIC50 [2]: > 6.00
- pIC50 [3]: < 6.00
- pIC50 [4]: < 6.00
- pIC50 [5]: < 6.00
- pIC50 [6]: > 7.00
- CDK1/CDK7: Selectivity of CDK7 inhibition over CDK1 inhibition [6]: A (A indicates [fold] > 500)
- CDK2/CDK7: Selectivity of CDK7 inhibition over CDK2 inhibition [6]: A (A indicates [fold] > 500)
- CDK5/CDK7: Selectivity of CDK7 inhibition over CDK5 inhibition [6]: A (A indicates [fold] > 500)

SMILES: C=C(F)C(=O)Nc1ccc2c(-c3ccccc3CNc3nc(N4CCC(OC(F)(F)F)CC4)nc4c(C(C)C)cnn34)nccc2c1 [Compound 86]
- pIC50 [1]: 5.00 to 6.00
- pIC50 [2]: > 6.00
- pIC50 [3]: < 6.00
- pIC50 [4]: < 6.00
- pIC50 [5]: < 6.00
- pIC50 [6]: < 6.00
- CDK1/CDK7: Selectivity of CDK7 inhibition over CDK1 inhibition [6]: C (C indicates [fold] ≤ 50)
- CDK2/CDK7: Selectivity of CDK7 inhibition over CDK2 inhibition [6]: C (C indicates [fold] ≤ 50)
- CDK5/CDK7: Selectivity of CDK7 inhibition over CDK5 inhibition [6]: C (C indicates [fold] ≤ 50)

SMILES: C=C(F)C(=O)Nc1ccc2c(-c3ccccc3CNc3nc(N[C@@H]4CC[C@@H](C)NC4)nc4c(C(C)C)cnn34)nccc2c1 [Compound 163]
- pIC50 [1]: > 6.00
- pIC50 [2]: > 6.00
- pIC50 [3]: < 6.00
- pIC50 [4]: < 6.00
- pIC50 [5]: < 6.00
- pIC50 [6]: > 7.00
- CDK1/CDK7: Selectivity of CDK7 inhibition over CDK1 inhibition [6]: A (A indicates [fold] > 500)
- CDK2/CDK7: Selectivity of CDK7 inhibition over CDK2 inhibition [6]: A (A indicates [fold] > 500)
- CDK5/CDK7: Selectivity of CDK7 inhibition over CDK5 inhibition [6]: A (A indicates [fold] > 500)

SMILES: C=C(F)C(=O)Nc1ccc2c(-c3ccccc3CNc3nc(NCC4CNCCO4)nc4c(C(C)C)cnn34)nccc2c1 (racemic) [Compound 80]
- pIC50 [1]: > 6.00
- pIC50 [2]: > 6.00
- pIC50 [3]: < 6.00
- pIC50 [4]: < 6.00
- pIC50 [5]: < 6.00
- pIC50 [6]: > 7.00
- CDK1/CDK7: Selectivity of CDK7 inhibition over CDK1 inhibition [6]: A (A indicates [fold] > 500)
- CDK2/CDK7: Selectivity of CDK7 inhibition over CDK2 inhibition [6]: A (A indicates [fold] > 500)
- CDK5/CDK7: Selectivity of CDK7 inhibition over CDK5 inhibition [6]: A (A indicates [fold] > 500)

SMILES: CC(C)c1cnn2c(NCc3ccccc3-c3nccc4cc(NC(=O)/C=C/CN(C)C)ccc34)nc(N3CC4(COC4)C3)nc12 [Compound 108]
- pIC50 [1]: > 6.00
- pIC50 [2]: > 6.00
- pIC50 [3]: < 6.00
- pIC50 [4]: < 6.00
- pIC50 [5]: < 6.00
- pIC50 [6]: 6.00 to 7.00
- CDK1/CDK7: Selectivity of CDK7 inhibition over CDK1 inhibition [6]: C (C indicates [fold] ≤ 50)
- CDK2/CDK7: Selectivity of CDK7 inhibition over CDK2 inhibition [6]: C (C indicates [fold] ≤ 50)
- CDK5/CDK7: Selectivity of CDK7 inhibition over CDK5 inhibition [6]: C (C indicates [fold] ≤ 50)

SMILES: C=C(F)C(=O)Nc1ccc2c(-c3ccccc3CNc3nc(NC4CCC(OC)C4)nc4c(C(C)C)cnn34)nccc2c1 (single isomer, unassigned) [Compound 97]
- pIC50 [1]: > 6.00
- pIC50 [2]: > 6.00
- pIC50 [3]: < 6.00
- pIC50 [4]: < 6.00
- pIC50 [5]: < 6.00
- pIC50 [6]: 6.00 to 7.00
- CDK1/CDK7: Selectivity of CDK7 inhibition over CDK1 inhibition [6]: B (B indicates 50 < [fold] ≤ 500)
- CDK2/CDK7: Selectivity of CDK7 inhibition over CDK2 inhibition [6]: B (B indicates 50 < [fold] ≤ 500)
- CDK5/CDK7: Selectivity of CDK7 inhibition over CDK5 inhibition [6]: B (B indicates 50 < [fold] ≤ 500)

SMILES: C=C(F)C(=O)Nc1ccc2c(-c3ccccc3CNc3nc(N4CCCC(OC)CC4)nc4c(C(C)C)cnn34)nccc2c1 (stereo not drawn) [Compound 100]
- pIC50 [1]: 5.00 to 6.00
- pIC50 [2]: 5.00 to 6.00
- pIC50 [3]: < 6.00
- pIC50 [4]: < 6.00
- pIC50 [5]: < 6.00
- pIC50 [6]: < 6.00
- CDK1/CDK7: Selectivity of CDK7 inhibition over CDK1 inhibition [6]: C (C indicates [fold] ≤ 50)
- CDK2/CDK7: Selectivity of CDK7 inhibition over CDK2 inhibition [6]: C (C indicates [fold] ≤ 50)
- CDK5/CDK7: Selectivity of CDK7 inhibition over CDK5 inhibition [6]: C (C indicates [fold] ≤ 50)

SMILES: CC(C)c1cnn2c(NCc3ccccc3-c3nccc4cc(NC(=O)/C=C/CN(C)C)ccc34)nc(N3CCCC4(CC3)OCCO4)nc12 [Compound 115]
- pIC50 [1]: > 6.00
- pIC50 [2]: 5.00 to 6.00
- pIC50 [3]: < 6.00
- pIC50 [4]: < 6.00
- pIC50 [5]: < 6.00
- pIC50 [6]: 6.00 to 7.00
- CDK1/CDK7: Selectivity of CDK7 inhibition over CDK1 inhibition [6]: B (B indicates 50 < [fold] ≤ 500)
- CDK2/CDK7: Selectivity of CDK7 inhibition over CDK2 inhibition [6]: B (B indicates 50 < [fold] ≤ 500)
- CDK5/CDK7: Selectivity of CDK7 inhibition over CDK5 inhibition [6]: B (B indicates 50 < [fold] ≤ 500)

SMILES: CC(C)c1cnn2c(NCc3ccccc3-c3nccc4cc(NC(=O)/C=C/CN(C)C)ccc34)nc(N3CC4COCC4C3)nc12 (stereo not drawn) [Compound 104]
- pIC50 [1]: > 6.00
- pIC50 [2]: > 6.00
- pIC50 [3]: < 6.00
- pIC50 [4]: < 6.00
- pIC50 [5]: < 6.00
- pIC50 [6]: 6.00 to 7.00
- CDK1/CDK7: Selectivity of CDK7 inhibition over CDK1 inhibition [6]: B (B indicates 50 < [fold] ≤ 500)
- CDK2/CDK7: Selectivity of CDK7 inhibition over CDK2 inhibition [6]: B (B indicates 50 < [fold] ≤ 500)
- CDK5/CDK7: Selectivity of CDK7 inhibition over CDK5 inhibition [6]: B (B indicates 50 < [fold] ≤ 500)

SMILES: CC(C)c1cnn2c(NCc3ccccc3-c3nccc4cc(NC(=O)/C=C/CN(C)C)ccc34)nc(N3CCC(=O)CC3)nc12 [Compound 106]
- pIC50 [1]: > 6.00
- pIC50 [2]: > 6.00
- pIC50 [3]: < 6.00
- pIC50 [4]: < 6.00
- pIC50 [5]: < 6.00
- pIC50 [6]: 6.00 to 7.00
- CDK1/CDK7: Selectivity of CDK7 inhibition over CDK1 inhibition [6]: C (C indicates [fold] ≤ 50)
- CDK2/CDK7: Selectivity of CDK7 inhibition over CDK2 inhibition [6]: C (C indicates [fold] ≤ 50)
- CDK5/CDK7: Selectivity of CDK7 inhibition over CDK5 inhibition [6]: C (C indicates [fold] ≤ 50)

SMILES: C=C(F)C(=O)Nc1cccc2ccc(-c3cccc(C)c3CNc3nc(N4CCC(OC)CC4)nc4c(C(C)C)cnn34)nc12 [Compound 93]
- pIC50 [1]: > 6.00
- pIC50 [2]: 5.00 to 6.00
- pIC50 [3]: < 6.00
- pIC50 [4]: < 6.00
- pIC50 [5]: < 6.00
- pIC50 [6]: < 6.00
- CDK1/CDK7: Selectivity of CDK7 inhibition over CDK1 inhibition [6]: C (C indicates [fold] ≤ 50)
- CDK2/CDK7: Selectivity of CDK7 inhibition over CDK2 inhibition [6]: C (C indicates [fold] ≤ 50)
- CDK5/CDK7: Selectivity of CDK7 inhibition over CDK5 inhibition [6]: C (C indicates [fold] ≤ 50)

SMILES: CC(C)c1cnn2c(NCc3ccccc3-c3nccc4cc(NC(=O)/C=C/CN(C)C)ccc34)nc(NC3CCC(C)(C)NC3)nc12 (stereo not drawn) [Compound 179]
- pIC50 [1]: > 6.00
- pIC50 [2]: > 6.00
- pIC50 [3]: < 6.00
- pIC50 [4]: < 6.00
- pIC50 [5]: < 6.00
- pIC50 [6]: > 7.00
- CDK1/CDK7: Selectivity of CDK7 inhibition over CDK1 inhibition [6]: A (A indicates [fold] > 500)
- CDK2/CDK7: Selectivity of CDK7 inhibition over CDK2 inhibition [6]: A (A indicates [fold] > 500)
- CDK5/CDK7: Selectivity of CDK7 inhibition over CDK5 inhibition [6]: A (A indicates [fold] > 500)

Reference: patent US12606561B2, “Substituted pyrazolo[1,5-a][1,3,5]triazines as CDK inhibitors” (QURIENT CO., LTD., priority 2018, dated 2026)
